This test deals with anti-Fas-induced hepatocyte apoptosis. The test is described as follows: Anti-Fas induced hepatotoxicity in mice (serum transaminases). The format is in vivo. Here is the method:
It has been previously shown that injection of mice with antibodies directed against the Fas antigen causes hepatocyte apoptosis and death due to liver failure (Ogasawara et al. (1993) Nature 364:806-809). Therefore, the effects of administration of DK120 to mice injected with antibodies directed against the murine Fas antigen were tested.
^1 Mice (2 for each treatment) were injected ip +/- DK120 30 min prio
to antiFas antibodies. Twelve h later serum transaminase levels were […]

For `C[C@H](NC(=O)OCc1ccccc1)C(=O)N[C@@H](C)C(=O)NC(Cc1ccccc1)B(O)O` (stereo partly drawn) [DK120, carbobenzoxy-ala-ala-borophe], the AST (DK120 5 mg/kg ip 30 min prior to anti-Fas, 12 h, without DK120 81) turned out to be 121 U/ml. For the same compound, where the note is “DK120 5 mg/kg ip 30 min prior to anti-Fas, 12 h, without DK120 513”, the ALT turned out to be 746 U/ml. Also, the “Effect on anti-Fas induced elevation of serum transaminases” value (mouse, in vivo) is “did not counteract the elevation of serum transaminases induced by anti-Fas antibodies”.

The record behind these values is US5952189A (priority 1997, dated 1999).
